Legend:
[1] = Particle size and polydispersity index of nanoparticle compositions (Zetasizer Nano ZS); type: physicochemical; details: for PDI (Polydispersity index): lipid nanoparticle, ±SD within one assay run (Table 37)
How it was run: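 Measured in 1×PBS by Zetasizer Nano ZS.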

luciferase (Luc) mRNA [2] = assay: Luc expression in liver, lung, spleen and femur 6 hours after intravenous administration; type: in vivo; details: mice, 0.5 mpk; for Total Flux Femur / Total Flux Liver / Total Flux Lung / Total Flux Spleen: intravenous
How it was run: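 LNP-formulated mRNA given IV to mice (n=3) at 0.5 mpk; at 6 h, bioluminescence imaged ex vivo 15 min after IP D-luciferin (15 mg/mL, 200 μL), organs imaged within 25 min. Values are total flux by region of interest.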

IL-6, IP-10 = assay: Cytokine induction in mice upon intravenous administration; type: in vivo; set-up: Cytokine induction IL-6 / Cytokine induction IP-10: unit not given here; details: 0.5 mpk, 6 hours; for Cytokine induction IL-6 / Cytokine induction IP-10: intravenous
How it was run: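 IL-6 and IP-10 concentrations determined 6 hours after a single intravenous 0.5 mpk dose of lipid nanoparticle formulation in mice, with MC3 and PBS as comparators.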

[3] = Encapsulation efficiency of RNA (QUANT-IT RIBOGREEN RNA assay); type: physicochemical; details: for % Encapsulation: lipid nanoparticle, ±SD within one assay run (Table 37)
How it was run: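 RiboGreen fluorescence (ex ~480, em ~520 nm) compared between intact samples and Triton X-100-lysed samples after 15 min at 37 °C in TE buffer, pH 7.5. Percent free RNA is the blank-corrected intact/disrupted ratio.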

luciferase (Luc) mRNA [4] = assay: Luc expression, whole body bioluminescence after intravenous administration to mice; type: in vivo; details: for Fold increase in total body Luc Flux relative to MC3 at 6 h: Table 3A; for Total Flux 3 hours / Total Flux 6 hours / Total Flux 24 hours: i.v., 0.5 mg/kg, Luc mRNA; for Average total flux (6 h, ffluc) / Fold increase in average total flux relative to MC3: 6 h
How it was run: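 Bioluminescence, read as region-of-interest total flux at 3, 6 and 24 h, followed a single 0.5 mg/kg intravenous dose of Luc mRNA-loaded nanoparticles in mice (n=6). Luciferin substrate (200 μL, 15 mg/mL in PBS) was injected intraperitoneally into CD-1 mice 15 minutes ahead of each imaging point.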

[5] = Table 1A, lipid:DSPC:cholesterol:PEG-DMG 50:10:38.5:1.5 mol %
[6] = Table 1B, formulated with hEPO mRNA
[7] = Table 1C, compositions for subcutaneous administration
[8] = Table 1D, for subcutaneous administration, # formulated with hEPO mRNA
[9] = Table 1E, compositions for subcutaneous administration
[10] = lipid:DSPC:Chol:PEG-DMG (50:10:38.5:1.5), hEPO mRNA
[11] = nanoparticle composition with hEPO mRNA (Table 30)

Row | SMILES | PDI ([1]; Table 1A) | Size (nm) [1, 5] [nm] | PDI [1, 9] | Size (nm) [1, 9] [nm] | PDI (Polydispersity index) [1] | PDI [1, 10] | Total Flux Femur (luciferase (Luc) mRNA [2]) | Total Flux Liver (luciferase (Luc) mRNA [2]) | Total Flux Lung (luciferase (Luc) mRNA [2]) | Total Flux Spleen (luciferase (Luc) mRNA [2]) | Cytokine induction IL-6 (IL-6, IP-10) | Cytokine induction IP-10 (IL-6, IP-10) | EE (%) ([3]; Table 1A) | % EE [3, 9] [%] | % Encapsulation [3] [%] | EE [3, 10] [%] | Fold increase in total body Luc Flux relative to MC3 at 6 h (luciferase (Luc) mRNA [4]; i.v. administration) | Total Flux 3 hours (luciferase (Luc) mRNA [4]; mice) | Total Flux 6 hours (luciferase (Luc) mRNA [4]; mice) | Total Flux 24 hours (luciferase (Luc) mRNA [4]; mice) | further results
1 | CCCCC/C=C\C/C=C\CCCCCCCCC(CCCCCCCC/C=C\C/C=C\CCCCC)OC(=O)CCCN(C)C [MC3, DLin-MC3-DMA, reference compound] | 0.11 | 79.7 | 0.10 | 62.4 | 0.11 ± 0.04 | 0.114 | 2.56E+06 | 2.57E+09 | 1.27E+07 | 2.85E+07 | 124.42 | 504.90 | 97.3 | 98 | 97.3 ± 1.9 | 97.22 | 1.00 | 1.58E+10 | 2.12E+10 | 7.19E+08 | PDI [1, 6]: 0.12; Size (nm) [1, 6]: 57.7 nm; PDI [1, 7]: 0.09; Size (nm) [1, 7]: 56.9 nm; PDI [1, 8]: 0.15; Size (nm) [1, 8]: 69.1 nm; PDI [1, 11]: 0.220; EE (%) [3, 6]: 99.01%; % EE [3, 7]: 98.2%; % EE [3, 8]: 98.7%; EE [3, 11]: 91.66%; Lipid/MC3 Luc expression (luciferase (Luc) mRNA [4]; 0.5 mpk dose to mouse, 6 hours after administration): 1; 6 h Lipid/MC3 Avg. Luc Expression (luciferase (Luc) mRNA [4]; Table 3C, i.v. administration): 1; Fold increase AUC Lipid/MC3 (luciferase (Luc) mRNA [4]; Table 3C, i.v. administration): 1; AUC (h * p/s) (luciferase (Luc) mRNA [4]; Table 3C, i.v. administration, Luc): 8.24E+10 h * p/s; Lipid/MC3 AUC (luciferase (Luc) mRNA [4]; Table 3D, intravenous): 1; AUC (p/s * h) (luciferase (Luc) mRNA [4]; Table 3D, intravenous, Luc): 1.909E+011 p/s * h; Average total flux (6 h, ffluc) (luciferase (Luc) mRNA [4]; mice, intravenous): 6.59 × 10^9; Fold increase in average total flux relative to MC3 (luciferase (Luc) mRNA [4]; mice, intravenous): 1
2 | CCCCCCCCCOC(=O)CCCCCCCN(CCO)CCCCCC(=O)OC(CCCCCCCC)CCCCCCCC [Compound 27, Nonyl 8-((6-(heptadecan-9-yloxy)-6-oxohexyl)(2-hydroxyethyl)amino) octanoate] | 0.18 | 82.3 | – | – | – | – | 2.00E+06 | 2.16E+09 | 6.35E+06 | 3.78E+06 | 161.07 | 345.56 | 94.27 | – | – | – | 0.31 | 1.64E+10 | 1.03E+10 | 1.94E+09 | –
3 | CCCCCCCCCN(CCO)CCCCCCCC(=O)OC(CCCCCCCC)CCCCCCCC [Compound 3, Heptadecan-9-yl 8-((2-hydroxyethyl)(nonyl)amino)octanoate] | 0.20 | 97.5 | – | – | – | – | 7.36E+06 | 1.39E+10 | 4.76E+07 | 1.47E+08 | 282.88 | 2052.87 | 92.25 | – | – | – | 2.24 | 6.55E+10 | 7.37E+10 | 4.96E+09 | Flux in the liver (luciferase (Luc) mRNA [2]; i.v., in words): highest; IL-6 induction (IL-6, IP-10; i.v., in words): highest; IP-10 induction (IL-6, IP-10; i.v., in words): highest; Fold increase in Luc expression relative to MC3, Intravenous (0.5 mpk dose) (luciferase (Luc) mRNA [4]; intravenous, 0.5 mpk): 2.24
4 | CCCCC/C=C\C/C=C\CCCCCCCCN(CCO)CCCCCCCC(=O)OC(CCCCCCCC)CCCCCCCC [Compound 6, Heptadecan-9-yl 8-((2-hydroxyethyl)((9Z,12Z)-octadeca-9,12-dien-1-yl)amino)octanoate] | 0.066 | 73.1 | – | – | 0.07 ± 0.05 | 0.082 | 2.15E+06 | 1.09E+09 | 4.30E+06 | 3.03E+07 | 136.18 | 316.01 | 97.60 | – | 97.6 ± 1.2 | 97.84 | 1.15 | 5.38E+09 | 7.60E+09 | 7.69E+08 | luciferase activity relative to MC3 LNP control (luciferase (Luc) mRNA [4]; mice, intravenous, 0.5 mg/kg (mRNA dose)): Equivalent expression to MC3 LNPs; Average total flux (6 h, ffluc) (luciferase (Luc) mRNA [4]; mice, intravenous): 7.60 × 10^9; Fold increase in average total flux relative to MC3 (luciferase (Luc) mRNA [4]; mice, intravenous): 1.15
5 | CCCCCCCCCOC(=O)CCCCCCCN(CCCO)CCCCCCCC(=O)OC(CCCCCCCC)CCCCCCCC [Compound 19, Heptadecan-9-yl 8-((3-hydroxypropyl)(8-(nonyloxy)-8-oxooctyl)amino) octanoate] | 0.17 | 101.1 | 0.13 | 80.7 | – | – | 1.68E+06 | 6.33E+08 | 5.99E+06 | 1.77E+07 | 285.56 | 1468.94 | 97.21 | 93 | – | – | 0.96 | 3.38E+10 | 3.56E+09 | 4.68E+08 | IL-6 induction (IL-6, IP-10; i.v., in words): highest
